Source: patent US8338333B1, “Methods for controlling weeds including kudzu” (priority 2009, dated 2012)

Key:
kudzu [1] = details: thirteen applications over a five year period; cited from earlier work
kudzu [2] = test: Field trial (Holcomb): kudzu regrowth, green biomass dry weight per plot; format: in vivo, Pueraria montana (Lour.) Merr. variety lobata (Willd.); details: 6 WAT, applied mid September at maximum labeled rates, untreated control .81, Lsd .41
Source text: Field trials: Uniform areas of land infested with kudzu were identified in Holcomb and Yazoo City, Miss. Plots were one by two meters separated by a narrow strip to prevent cross-contamination of herbicides in Holcomb. Plots were three by three meters in Yazoo City. Herbicides were applied with an hand held boom sprayer equipped with a Teejet 8002 EVS flat fan nozzles, adjusted to 207 kPa, and applied at 1.3 m/s in a single pass to deliver 61.2 L/ha to the treatment areas. Commercial formulations of herbicides were applied at their maximum labeled rates. Herbicides were applied to both sites in mid September. In Holcomb, vegetation within a 0.3 m^2 area of each test plot was harvested at 6 weeks after treatment. Green plant matter was collected and dried as an estimate of above-ground healthy biomass. Biomass of treated plots was compared to untreated plots to determine percent control. In Yazoo City, the percentage reduction in leaf cover was determined by counting the number of leaves intersected by a grid containing 100 intersections (at 10 centimeter intervals) per one meter square.
Translocation of herbicides to roots is vital to achieving control of established perennial species like kudzu having deep root systems and a high capacity for regrowth. Other weeds such as redvine, silverleaf nightshade, and yellow and purple nutsedge with deep perenniating underground structures may also be more easily controlled. Without being bound by theory, the field application occurred in September when carbon allocation in kudzu shifts to root reserve replenishment which could facilitate herbicide translocation and may account for the greater activity of the combination of trifloxysulfuron and glyphosate on suppressing regrowth.

kudzu [3] = test: Greenhouse trial: kudzu control by reduction of above-ground green biomass; format: in vivo, Pueraria montana (Lour.) Merr. variety lobata (Willd.); details: 2 WAT, vs untreated plants, dry weight basis, rate (units/A) differs per treatment as in Table 1
Protocol: (§1) Greenhouse trials: Kudzu was established from seed in flats containing a 2:3 (w:w) mixture of soil (Bosket silt clay loam, fine-silty, mixed thermic Aeric Ochraqualf) and potting media. Seedlings were transferred to 10 cm diameter pots containing the same soil mixture when they developed two true leaves. Pots were placed in the greenhouse, set at 30°±2° C., and equipped with supplemental lighting to provide a 14-h photoperiod. Pots were irrigated as needed and fertilized every three weeks with slow release Osmocote® fertilizer at 1.5 g/pot. […] Plants were selected for size uniformity from a population of approximately three times that necessary to establish a test.
(§2) Herbicides were applied with a pneumatic track sprayer with a TeeJet 8002 flat-fan nozzle delivering 187 L/ha water at 179 kPa. The rates utilized in this study were based on the allowable rates according to the label of the herbicide containers. Kudzu was evaluated for herbicide injury expressed as the percentage of above-ground green biomass remaining at 2 weeks after treatment (WAT) compared to untreated plants (control) on a dry weight basis. Treatments were arranged in a randomized complete block design with four replications and the experiment was repeated. Data were analyzed using the Proc Mixed procedure in SAS and means were separated using a Fisher's Protected least significant difference (LSD) at P=0.05.
In greenhouse studies, shoot biomass was determined at 2 WAT. […] For those skilled in the art of weed control, enhanced control resulting from glyphosate and an ALS inhibitor would not be expected. […] Those with high initial activity against kudzu may provide suitable kudzu control when mixed with glyphosate.

mature kudzu vines = test: Field: post-emergence application to mature kudzu stands (FIG. 4); format: in vivo, Pueraria montana (Lour.) Merr. variety lobata (Willd.); details: 3 WAT, single post-emergence application, rates per Table 4
Source text: The labeled recommended rate of glyphosate, for kudzu control was 80 to 106 ounces per acre which was well above the rates tested herein. ALS inhibitors were used at label rates. Post-emergence applications of the treatments listed in Table 4 were made to mature kudzu stands growing over a Bermuda grass turf. […] When ALS inhibitors were applied alone, less than 10% control was observed 3 WAT, whereas glyphosate alone provided less than 26% control.

kudzu [4] = test: Glyphosate and trifloxysulfuron at reduced rates on kudzu (Example 2); format: in vivo, Pueraria montana (Lour.) Merr. variety lobata (Willd.)
Protocol: as §1, §2
The labeled recommended rate of glyphosate for kudzu control was 80 to 106 ounces per acre which was well above the rates tested herein. In Table 2 the rates were 8, 16 and 22 oz formulated glyphosate (WeatherMax™) per acre with trifloxysulfuron at 4.25 grams per acre. The ability to achieve control of kudzu at reduced rates of herbicide was a further indication that a unique effect was observed and allowed control using less pesticide.

| SMILES | Kudzu Regrowth Gram dry wgt per plot (kudzu [2]) | Control (%), kudzu control based on percent reduction of above-ground green biomass (kudzu [3]) [%] | further results |
| --- | --- | --- | --- |
| O=C(O)COc1cc(Cl)c(Cl)cc1Cl [2,4,5-trichlorophenoxyacetic acid] |  |  | killing of all kudzu crowns (kudzu [1]): not successful in killing all crowns |
| CCNc1nc(Cl)nc(NC(C)C)n1 [atrazine] | .59 Gram dry wgt per plot |  |  |
| CCOc1nc(F)cc2nc(S(=O)(=O)Nc3c(Cl)cccc3C(=O)O)nn12 [chloransulam] |  | 11 |  |
| COc1cc(Cl)nc(NC(=O)NS(=O)(=O)c2ccccc2C(=O)O)n1 [chlorimuron] |  | 0 |  |
| O=C(O)CNCP(=O)(O)O [glyphosate] | .52 Gram dry wgt per plot |  | control of mature kudzu (mature kudzu vines): less than 26%; Kudzu Control (%) (kudzu [4]; glyphosate 0.35 lb./A alone): 33%; Kudzu Control (%) (kudzu [4]; glyphosate 0.7 lb./A alone): 95%; Kudzu Control (%) (kudzu [4]; glyphosate 1 lb./A alone): 97% |
| CSc1nnc(C(C)(C)C)c(=O)n1N [metribuzin] | .51 Gram dry wgt per plot |  |  |
| COc1nc(C)nc(NC(=O)NS(=O)(=O)c2ccccc2C(=O)O)n1 [metsulfuron] |  | 87 |  |
| COc1cc(OC)nc(NC(=O)NS(=O)(=O)c2ncccc2OCC(F)(F)F)n1 [trifloxysulfuron] |  | 93 | Kudzu Control (%) (kudzu [4]; trifloxysulfuron 4.25 g/A alone): 72% |
